Measurements as given in publication PMC12634411, “Phase Ib study of berzosertib, carboplatin, gemcitabine, and pembrolizumab in patients with squamous nonsmall lung cancer (ETCTN 10313)” (The Oncologist, 2025).
Values joined by “and” are separate entries in the source; they are usually repeats but may differ in a detail not shown here. Equal values may be shown once. Blank lines part the entries; values can stand above or below the compound they belong to.

Experiments:
[1] = tested on: ATM-deficient NSCLC tumors; set-up: method as in PMID 26517239; conditions: combination of ceralasertib (AZD6738) and cisplatin, xenograft models; cited from earlier work
[2] = tested on: patients with advanced solid tumors; set-up: method as in PMID 32568634; conditions: berzosertib 90-240 mg/m^2 and carboplatin AUC 4-5, 23 patients; cited from earlier work
[3] = tested on: p-Chk1 (Chk1, a primary downstream target of ATR); conditions: reported value, no reference given; cited from earlier work
[4] = tested on: newly diagnosed advanced squamous NSCLC; experiment: Antitumor activity (RECIST 1.1), PFS, OS, ORR; assay type: in vivo, human; conditions: gemcitabine, pembrolizumab
Description: (§1) Primary endpoint was the recommended phase II dose (RP2D). Antitumor activity and pharmacokinetics were secondary endpoints. Results Twelve patients were enrolled and treated. […] Five of eleven evaluable patients (46%) experienced partial response. […] Clinicaltrials.gov Identifier: NCT04216316.
(§2) Antitumor activity and pharmacokinetics were secondary endpoints.

[5] = Berzosertib plasma pharmacokinetics, phase Ib trial; conditions: for Cmax: human, plasma, iv, 135 mg/m2, Cmax, geometric mean (SD)
Description: Due to the limited sampling, the most reliable PK parameter assessed was Cmax.

[6] = tested on: advanced urothelial carcinoma; set-up: method as in PMID 34436521; conditions: gemcitabine and cisplatin plus berzosertib, phase II; cited from earlier work
[7] = Gemcitabine (dFdC) and metabolite (dFdU) plasma pharmacokinetics, phase Ib trial; conditions: geometric mean (SD)
Description: Primary endpoint was the recommended phase II dose (RP2D). Antitumor activity and pharmacokinetics were secondary endpoints. […] Clinicaltrials.gov Identifier: NCT04216316.
as §2

[8] = tested on: patients with newly diagnosed advanced squamous NSCLC; experiment: Phase Ib safety and tolerability: dose-limiting toxicity, treatment-related adverse events, RP2D; assay type: in vivo, human; conditions: four-drug combination, carboplatin Day 1 of 3-week cycle
Description: as §1, §2
Twelve patients were enrolled and treated in phase Ib. […] The former patient passed away at home after having received cycle 1 Day 9 of therapy and causality was based on clinical history. While this event is not typical of the components of this regimen, we conservatively determined the event to be at least possible related to the platinum backbone of therapy and deemed this a DLT. […] Most common treatment-related adverse events (TRAEs) were anemia (83%), neutropenia (83%), leukopenia (83%), thrombocytopenia (58%), ALT increase (50%), lymphopenia (50%), and nausea (50%).

SMILES: C[C@@H]1COCCN1c1cc(C2([S@](C)(=N)=O)CC2)nc(-c2cc[nH]c3nccc2-3)n1 [ceralasertib]
effect on ATM-deficient NSCLC tumors [1]: near-complete resolution

Cmax/Dose ([5]; Dose level 1, 135 mg/m^2, N = 6, Day 2 of cycle 1, geometric mean (SD)): 5.18 (1.34) µg/L/mg/m^2
Cmax/Dose ([5]; Dose level −1, 135 mg/m^2, N = 6, Day 2 of cycle 1, geometric mean (SD)): 4.74 (1.31) µg/L/mg/m^2
Cmax/Dose ([5]; Total N = 12, Day 2 of cycle 1, geometric mean (SD)): 4.99 (1.31) µg/L/mg/m^2
Cmax ([5]; Dose level 1, 135 mg/m^2 IV, N = 6, Day 2 of cycle 1, plasma): 700 ng/mL
Cmax ([5]; Dose level −1, 135 mg/m^2 IV, N = 6, Day 2 of cycle 1, plasma): 640 ng/mL
Cmax ([5]; Total N = 12, 135 mg/m^2 IV, Day 2 of cycle 1, plasma): 669 ng/mL
SMILES: CNCc1ccc(-c2cc(-c3nc(-c4ccc(S(=O)(=O)C(C)C)cc4)cnc3N)on2)cc1 [Berzosertib]
events of grade ≥3 nausea and vomiting [2]: no events
grade ≥3 neutropenia [2]: 22%
human equivalent p-Chk1 IC50 [3]: approximately 110 ng/mL
ORR (partial response) ([4]; 5 of 11 evaluable patients, 95% CI: 16.7%, 76.6%, RECIST 1.1, combination with carboplatin): 46% and 45.5%
stable disease ([4]; 6 of 11 evaluable patients, 95 CI: 23.4%, 83.3%, combination with carboplatin): 54.5%
median PFS ([4]; 12 patients, 95% CI: 3, 13, median follow-up 17 months, combination with carboplatin): 9 months
median OS ([4]; 12 patients, 95% CI: 3, not reached, median follow-up 17 months, combination with carboplatin): 15 months
survival with the addition of berzosertib vs gemcitabine and cisplatin alone [6]: inferior survival

dFdC Cmax ([7]; Dose level 1, gemcitabine 800 mg/m^2, N = 6, plasma): 9.29 (1.51) mg/L
dFdC Cmax ([7]; Dose level −1, gemcitabine 800 mg/m^2, N = 6, plasma): 11.2 (1.12) mg/L
dFdC Cmax ([7]; Total N = 12, gemcitabine 800 mg/m^2, plasma): 10.2 (1.35) mg/L
SMILES: Nc1ccn([C@@H]2O[C@H](CO)[C@@H](O)C2(F)F)c(=O)n1 [gemcitabine]

SMILES: N.N.O=C([O-])C1(C(=O)[O-])CCC1.[Pt+2] [carboplatin]
recommended phase II dose (RP2D) [8]: 4 AUC
